Assay results published in ChEMBL document CHEMBL6087456 (J Med Chem, 2025).
Values after ≈ are worked out from the molar mass of the structure shown.

Columns and labels:
[1] = Kinetic solubility of compound at pH 6.5 measured after 30 mins by nephelometry; format: physicochemical; settings: buffer; for solubility kinetic at 0.5 h: pH 6.5, read-out: Kinetic_solubility; for Kinetic_solubility: pH 6.5, 0.5 h
[2] = biological target: Dihydroorotate dehydrogenase (quinone), mitochondrial (Homo sapiens, UniProt Q02127); test: Inhibition of C-terminal His6-tagged recombinant human DHODH (29 to 395 residues) N-terminally truncated soluble domain extracted from Escherichia coli phage resistant BL21-DE3 using CoQD/DHA/DCIP as substrates
[3] = biological target: Albumin (Homo sapiens, UniProt P02768); test: Protein binding to albumin (unknown origin) in ALBUMAX medium; format: ADME; settings: read-out: PB (converted)
[4] = Metabolic stability in human liver microsomes assessed as intrinsic clearance at 0.5 uM incubated for 60 mins in presence of NADPH by tandem quadrupole-Time of Flight MS; format: ADME, Microsome; settings: 1 h
[5] = Ratio of drug concentration in Sprague-Dawley rat brain to plasma at 1 uM measured for 5 to 60 mins by LCMS analysis; format: ADME, cell-free; settings: time 5-60 min
[6] = system: Plasmodium falciparum; test: Antiparasitic activity against asexual blood stage Plasmodium falciparum 3D7 incubated for 72 hrs by SYBR Green assay; format: functional, organism-based; settings: 3D7, 72 h
[7] = Oral absorption in overnight-fasted male Sprague-Dawley rat at 3 mg/kg measured upto 72 hrs by LCMS analysis; format: ADME, organism-based; settings: in vivo
[8] = biological target: T1, Dihydroorotate dehydrogenase (quinone), mitochondrial (Plasmodium falciparum (isolate 3D7), UniProt Q08210); test: Inhibition of N-terminal His6-tagged recombinant Plasmodium falciparum DHODH (158 to 569 residues) N-terminally truncated soluble domain extracted from Escherichia coli phage resistant BL21-DE3 using CoQD/DHA/DCIP as substrates
T1 sequence (Q08210 whole entry): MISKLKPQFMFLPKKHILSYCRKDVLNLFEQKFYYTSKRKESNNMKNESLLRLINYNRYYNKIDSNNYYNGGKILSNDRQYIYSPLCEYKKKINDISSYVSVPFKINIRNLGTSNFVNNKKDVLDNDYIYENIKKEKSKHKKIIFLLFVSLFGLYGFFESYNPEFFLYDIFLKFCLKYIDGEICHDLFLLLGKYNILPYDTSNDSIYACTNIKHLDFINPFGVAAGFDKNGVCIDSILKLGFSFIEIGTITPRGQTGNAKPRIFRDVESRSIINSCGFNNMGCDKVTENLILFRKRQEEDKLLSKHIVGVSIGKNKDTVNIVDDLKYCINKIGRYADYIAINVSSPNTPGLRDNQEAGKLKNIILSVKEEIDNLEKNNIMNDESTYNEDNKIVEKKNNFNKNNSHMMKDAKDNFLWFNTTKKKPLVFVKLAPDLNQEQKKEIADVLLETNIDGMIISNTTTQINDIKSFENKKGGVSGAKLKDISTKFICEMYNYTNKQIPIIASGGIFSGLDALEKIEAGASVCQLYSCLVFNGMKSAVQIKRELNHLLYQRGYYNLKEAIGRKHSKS

[9] = Half life in overnight-fasted male Sprague-Dawley rat at 3 mg/kg, po or 1 mg/kg, iv measured upto 72 hrs by LCMS analysis; format: ADME, organism-based; settings: in vivo
[10] = Oral bioavailability in overnight-fasted male Sprague-Dawley rat at 3 mg/kg measured upto 72 hrs by LCMS analysis; format: ADME, organism-based; settings: in vivo
[11] = Protein binding in human hepatocytes; format: ADME, cell-based, Hepatocyte; settings: read-out: PB (converted)
[12] = Plasma protein binding in rat measured for 6 hrs by rapid equilibrium dialysis; format: ADME, cell-free
[13] = Plasma protein binding in human measured for 6 hrs by rapid equilibrium dialysis; format: ADME, cell-free
[14] = Partition coefficient, log D of compound at pH 7.4 measured after 24 hrs by LCMS analysis; format: physicochemical; settings: octanol/water, pH 7.4, 24 h

Sequence of Albumin (P02768 whole entry): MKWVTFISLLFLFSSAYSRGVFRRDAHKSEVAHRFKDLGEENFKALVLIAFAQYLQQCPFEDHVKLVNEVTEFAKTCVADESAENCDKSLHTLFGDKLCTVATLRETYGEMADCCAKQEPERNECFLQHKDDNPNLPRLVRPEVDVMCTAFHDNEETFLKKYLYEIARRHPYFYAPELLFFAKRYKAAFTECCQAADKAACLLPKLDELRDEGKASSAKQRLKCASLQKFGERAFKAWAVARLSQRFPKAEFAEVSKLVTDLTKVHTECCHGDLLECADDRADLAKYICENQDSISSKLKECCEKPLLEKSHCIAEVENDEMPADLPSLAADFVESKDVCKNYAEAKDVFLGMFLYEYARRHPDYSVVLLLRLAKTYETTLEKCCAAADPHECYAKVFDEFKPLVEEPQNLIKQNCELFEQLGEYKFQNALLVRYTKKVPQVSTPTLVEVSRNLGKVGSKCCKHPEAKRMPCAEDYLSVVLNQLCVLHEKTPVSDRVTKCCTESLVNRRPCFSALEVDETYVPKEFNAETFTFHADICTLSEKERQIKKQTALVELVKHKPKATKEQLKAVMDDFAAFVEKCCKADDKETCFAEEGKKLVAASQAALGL
Sequence of Dihydroorotate dehydrogenase (quinone), mitochondrial (Homo sapiens, UniProt Q02127) (Q02127 whole entry, the tested form may be a part): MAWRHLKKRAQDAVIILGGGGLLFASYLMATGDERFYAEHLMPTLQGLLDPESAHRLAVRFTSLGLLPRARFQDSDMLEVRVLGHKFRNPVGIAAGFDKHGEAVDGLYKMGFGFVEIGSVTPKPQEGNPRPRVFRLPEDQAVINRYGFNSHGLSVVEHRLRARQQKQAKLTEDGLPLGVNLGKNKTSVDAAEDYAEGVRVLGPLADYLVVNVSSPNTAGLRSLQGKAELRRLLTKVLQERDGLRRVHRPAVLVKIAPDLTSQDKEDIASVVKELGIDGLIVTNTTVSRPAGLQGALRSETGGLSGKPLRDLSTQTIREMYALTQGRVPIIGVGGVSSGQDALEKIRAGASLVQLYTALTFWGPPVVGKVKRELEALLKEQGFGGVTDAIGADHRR

| fraction unbound [3] | BPR [5] | Fa at 72 h [7] | t1/2 [9] | F [10] | fraction unbound [11] | PPB [12] | PPB [13] | SMILES | solubility kinetic at 0.5 h [1] | IC50 [2] | intrinsic clearance (CLint) [4] | EC50 [6] | IC50 [8] | Kinetic_solubility [1] | logD [14] |
| --- | --- | --- | --- | --- | --- | --- | --- | --- | --- | --- | --- | --- | --- | --- | --- |
| 0.558 | 0.72 | 100% | – | – | – | – | – | CCn1cc(Cl)c2c(Cc3ccc(C(F)(F)F)nc3)n(C)nc2c1=O | 70 µM (≈ 26 µg/mL) | 72 µM | 14 µL/min/mg | 14 nM | – | – | – |
| – | – | – | – | – | – | – | – | CCn1cc(Cl)c2c(Cc3ccc(N4CCCCC4)nc3)n(C)nc2c1=O | 40 µM (≈ 15.4 µg/mL) | 5.4 µM | 160 µL/min/mg | 62 nM | 17 nM | – | – |
| – | – | – | – | – | – | – | – | Cn1nc2c(=O)n(C3CC3)cnc2c1[C@](O)(c1ccc(C(F)(F)F)c(Cl)c1)C(F)(F)F | 20 µM (≈ 9.34 µg/mL) | 6.5 µM | < 3 µL/min/mg | 77000 nM | 5 nM | – | – |
| 0.499 | – | 15% | 31 h | – | – | – | – | Cc1nn(C2CC2)c(=O)c2nn(C)c(Cc3ccc(C(F)(F)F)c(C#N)c3)c12 | – | – | – | – | – | – | – |
| – | – | – | – | – | – | – | – | CCn1cc(C2CC2)c2c([C@H](N)c3ccc(C(F)(F)F)nc3)n(C)nc2c1=O | – | > 100 µM | 3.8 µL/min/mg | 27 nM | 180 nM | > 320 µM | – |
| – | – | 40% | – | – | – | – | – | Cn1nc2c(=O)n(C3CC3)ccc2c1[C@](O)(c1ccc(C(F)(F)F)nc1)C1CC1 | 20 µM (≈ 8.09 µg/mL) | > 30 µM | < 3 µL/min/mg | 7 nM | – | – | – |
| – | – | – | – | – | – | – | – | CCn1cc(C)c2c(Cc3ccc(C(F)(F)F)nc3)n(C)nc2c1=O | – | > 100 µM | < 7 µL/min/mg | 44 nM | 70 nM | > 280 µM | – |
| – | – | – | – | – | – | – | – | CCn1ccc2c(Cc3ccc(C(F)(F)F)nc3)n(C)nc2c1=O | – | > 30 µM | < 7 µL/min/mg | 580 nM | 1500 nM | > 300 µM | – |
| – | – | – | – | – | – | – | – | Cn1nc2c(=O)n(C3CC3)cc(C3CC3)c2c1Cc1ccc(C(F)(F)F)nc1 | 65 µM (≈ 25.2 µg/mL) | 17 µM | < 7 µL/min/mg | 32 nM | 43 nM | – | – |
| – | – | – | – | – | – | – | – | CC[C@@](O)(c1ccc(F)c(Cl)c1)c1c2ccn(C3CC3)c(=O)c2nn1C | 40 µM (≈ 15 µg/mL) | 0.7 µM | 8.4 µL/min/mg | 1 nM | 7 nM | – | – |
| – | – | – | – | – | – | – | – | CCn1cc(C2CC2)c2c(Cc3ccc(C(F)(F)F)c(C#N)c3)n(C)nc2c1=O | 15 µM (≈ 6.01 µg/mL) | 11 µM | 64 µL/min/mg | 4 nM | 15 nM | – | – |
| – | – | – | – | – | – | – | – | CCn1cc(Cl)c2c(Cc3ccc(N4CCOCC4)nc3)n(C)nc2c1=O | 65 µM (≈ 25.2 µg/mL) | > 100 µM | 15 µL/min/mg | 370 nM | 190 nM | – | – |
| – | – | – | – | – | – | – | – | CCn1cc(C2CC2)c2c(Cc3cnc(C(F)(F)F)c(OC)c3)n(C)nc2c1=O | 60 µM (≈ 24.4 µg/mL) | > 100 µM | 25 µL/min/mg | 17 nM | 57 nM | – | – |
| 0.63 | 0.73 | 82% | 15 h | 4% | 0.574 | – | – | CC[C@@](N)(c1cnc(C(F)(F)F)c(Cl)c1)c1c2ccn(C3CC3)c(=O)c2nn1C | – | – | < 3 µL/min/mg | 3 nM | – | > 100 µM | – |
| 0.821 | – | – | 3.4 h | – | – | 75.4% | – | CCn1ccc2c([C@@](O)(CC)c3ccc(C(F)(F)F)nc3)n(C)nc2c1=O | 40 µM (≈ 15.2 µg/mL) | – | 3.6 µL/min/mg | 2 nM | – | – | – |
| – | – | – | – | – | – | – | – | CCn1cc(C2CC2)c2c(Cc3ccc(C(F)(F)F)c(F)c3)n(C)nc2c1=O | 16 µM (≈ 6.29 µg/mL) | 14 µM | 52 µL/min/mg | 8 nM | 14 nM | – | – |
| – | 0.84 | – | – | – | – | 64% | 70.4% | CCn1ccc2c([C@](O)(c3cnc(C(F)(F)F)c(Cl)c3)C3CC3)n(C)nc2c1=O | 40 µM (≈ 17.1 µg/mL) | > 100 µM | 3.2 µL/min/mg | 2 nM | – | – | – |
| – | – | – | – | – | – | – | – | Cn1nc2c(=O)n(C3CC3)ncc2c1[C@](O)(c1ccc(C(F)(F)F)c(C#N)c1)C(F)(F)F | 20 µM (≈ 9.15 µg/mL) | > 30 µM | < 3 µL/min/mg | 1 nM | 19 nM | – | – |
| – | – | – | – | – | – | – | – | Cc1cn(C2CC2)c(=O)c2nn(C)c(Cc3ccc(C(F)(F)F)nc3)c12 | 130 µM (≈ 47.1 µg/mL) | 52 µM | < 7 µL/min/mg | 45 nM | 89 nM | – | – |
| – | – | – | – | – | – | – | – | Cn1nc2c(=O)n(C3CC3)ccc2c1[C@](O)(c1ccc(C(F)(F)F)c(C#N)c1)C1CC1 | – | > 30 µM | < 3 µL/min/mg | 1 nM | 18 nM | < 5 µM | – |
| – | – | – | – | – | – | – | – | CCn1cc(C2CC2)c2c(CN3CCC4(CCC4)CC3)n(C)nc2c1=O | 80 µM (≈ 28.4 µg/mL) | 22 µM | 130 µL/min/mg | 15 nM | 8 nM | – | – |
| – | – | – | – | – | – | – | – | Cn1nc2c(=O)n(C3CC3)ccc2c1Cc1ccc(C(F)(F)F)c(C#N)c1 | 67 µM (≈ 24.9 µg/mL) | > 100 µM | < 7 µL/min/mg | 81 nM | 140 nM | – | – |
| 0.289 | – | 4.6% | 19 h | – | 0.578 | 93% | 95.8% | Cn1nc2c(=O)n(C3CC3)ccc2c1[C@](O)(c1cnc(C(F)(F)F)c(Cl)c1)C1CC1 | 12.5 µM (≈ 5.49 µg/mL) | > 30 µM | < 3 µL/min/mg | 3 nM | – | – | – |
| – | – | – | – | – | – | – | – | CC[C@@](O)(c1ccc(C(F)(F)F)c(C#N)c1)c1c2ccn(C3CC3)c(=O)c2nn1C | 20 µM (≈ 8.33 µg/mL) | 0.96 µM | < 3 µL/min/mg | 1 nM | 19 nM | – | – |

| SMILES | fraction unbound [3] | BPR [5] | Fa at 72 h [7] | t1/2 [9] | F [10] | fraction unbound [11] | PPB [12] | PPB [13] | solubility kinetic at 0.5 h [1] | IC50 [2] | intrinsic clearance (CLint) [4] | EC50 [6] | IC50 [8] | Kinetic_solubility [1] | logD [14] |
| --- | --- | --- | --- | --- | --- | --- | --- | --- | --- | --- | --- | --- | --- | --- | --- |
| CCn1cc(C)c2c([C@H](N)c3ccc(C(F)(F)F)nc3)n(C)nc2c1=O | – | 1.1 | – | – | – | – | – | – | – | > 100 µM | < 3 µL/min/mg | 70 nM | 280 nM | > 320 µM | 1.82 |
